Experimental findings from patent US10206394B2, “Herbicidal compounds” (Syngenta Participations AG, priority 2014, dated 2019) are described below.

Where two headings read alike, the source gives them in different places.

What all share (assay): Glasshouse assay for herbicidal activity (pre- and post-emergence), percentage phytotoxicity
Assay type in all cases: in vivo

The subject of one assay is Avena fatua (AVEFA). The note with it: Avena fatua. Put shortly: (§1)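 Seeds were sown in standard soil in pots and grown one day (pre-emergence) or about 12 days (post-emergence) before herbicide application. Plants were kept at 24/18 °C (warm-climate) or 20/16 °C (cool-climate) day/night, 16 h light, 65% humidity, watered twice daily, and damage was scored visually at 15 DAA (POST) or 20 DAA (PRE).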

Assay [1] has as its system Echinochloa crus-galli (ECHCG). Conditions: Echinochloa crus-galli. A digest of the protocol:
as §1

In assay [2] the test system is Alopecurus myosuroides (ALOMY). The note with it: for pest or weed control at 250 g/ha: Alopecurus myosuroides. A digest of the protocol:
as §1

Another assay concerns Lolium perenne (LOLPE). The note with it: Lolium perenne. Put shortly: as §1
Where [3] appears, read: post-emergence, 360 h, Rate 250 g/ha, post-emergence, assessed visually 15 DAA, 100%=total damage, 0%=no damage, read-out: Post-emergence herbicidal activity (percentage phytotoxicity) AVEFA POST.
Setting [4] is: pre-emergence, 480 h, Rate 250 g/ha, pre-emergence, assessed visually 20 DAA, 100%=total damage, 0%=no damage, read-out: Pre-emergence herbicidal activity (percentage phytotoxicity) AVEFA PRE.
Where [5] appears, read: post-emergence, 360 h, Rate 250 g/ha, post-emergence, assessed visually 15 DAA, 100%=total damage, 0%=no damage, read-out: Post-emergence herbicidal activity (percentage phytotoxicity) ECHCG POST.
Where [6] appears, read: pre-emergence, 480 h, Rate 250 g/ha, pre-emergence, assessed visually 20 DAA, 100%=total damage, 0%=no damage, read-out: Pre-emergence herbicidal activity (percentage phytotoxicity) ECHCG PRE.
Where [7] appears, read: post-emergence, 360 h, Rate 250 g/ha, post-emergence, assessed visually 15 DAA, 100%=total damage, 0%=no damage, read-out: Post-emergence herbicidal activity (percentage phytotoxicity) ALOMY POST.
Where [8] appears, read: post-emergence, 360 h, Rate 250 g/ha, post-emergence, assessed visually 15 DAA, 100%=total damage, 0%=no damage, read-out: Post-emergence herbicidal activity (percentage phytotoxicity) LOLPE POST.
Setting [9] is: pre-emergence, 480 h, Rate 250 g/ha, pre-emergence, assessed visually 20 DAA, 100%=total damage, 0%=no damage, read-out: Pre-emergence herbicidal activity (percentage phytotoxicity) LOLPE PRE.
[10] abbreviates: post-emergence, 360 h, POST-emergence, rate 250 g/ha, visual score 15 DAA (100%=total damage, 0%=no damage), read-out: Post-emergence herbicidal activity (percentage phytotoxicity) AVEFA POST.
The mark [11] stands for this setting: pre-emergence, 480 h, PRE-emergence, rate 250 g/ha, visual score 20 DAA (100%=total damage, 0%=no damage), read-out: Pre-emergence herbicidal activity (percentage phytotoxicity) AVEFA PRE.
[12] abbreviates: post-emergence, 360 h, POST-emergence, rate 250 g/ha, visual score 15 DAA (100%=total damage, 0%=no damage), read-out: Post-emergence herbicidal activity (percentage phytotoxicity) ECHCG POST.
[13] abbreviates: pre-emergence, 480 h, PRE-emergence, rate 250 g/ha, visual score 20 DAA (100%=total damage, 0%=no damage), read-out: Pre-emergence herbicidal activity (percentage phytotoxicity) ECHCG PRE.
Setting [14] is: post-emergence, 360 h, POST-emergence, rate 250 g/ha, visual score 15 DAA (100%=total damage, 0%=no damage), read-out: Post-emergence herbicidal activity (percentage phytotoxicity) ALOMY POST.
Setting [15] is: pre-emergence, 480 h, PRE-emergence, rate 250 g/ha, visual score 20 DAA (100%=total damage, 0%=no damage), read-out: Pre-emergence herbicidal activity (percentage phytotoxicity) ALOMY PRE.
[16] abbreviates: post-emergence, 360 h, POST-emergence, rate 250 g/ha, visual score 15 DAA (100%=total damage, 0%=no damage), read-out: Post-emergence herbicidal activity (percentage phytotoxicity) LOLPE POST.
The mark [17] stands for this setting: pre-emergence, 480 h, PRE-emergence, rate 250 g/ha, visual score 20 DAA (100%=total damage, 0%=no damage), read-out: Pre-emergence herbicidal activity (percentage phytotoxicity) LOLPE PRE.
[18] abbreviates: post-emergence, 360 h, Rate 250 g/ha, post-emergence, visual assessment 15 DAA, 100%=total damage, 0%=no damage, read-out: Post-emergence herbicidal activity (percentage phytotoxicity) AVEFA POST.
Where [19] appears, read: pre-emergence, 480 h, Rate 250 g/ha, pre-emergence, visual assessment 20 DAA, 100%=total damage, 0%=no damage, read-out: Pre-emergence herbicidal activity (percentage phytotoxicity) AVEFA PRE.
[20] abbreviates: post-emergence, 360 h, Rate 250 g/ha, post-emergence, visual assessment 15 DAA, 100%=total damage, 0%=no damage, read-out: Post-emergence herbicidal activity (percentage phytotoxicity) ECHCG POST.
Where [21] appears, read: pre-emergence, 480 h, Rate 250 g/ha, pre-emergence, visual assessment 20 DAA, 100%=total damage, 0%=no damage, read-out: Pre-emergence herbicidal activity (percentage phytotoxicity) ECHCG PRE.
The mark [22] stands for this setting: post-emergence, 360 h, Rate 250 g/ha, post-emergence, visual assessment 15 DAA, 100%=total damage, 0%=no damage, read-out: Post-emergence herbicidal activity (percentage phytotoxicity) ALOMY POST.
[23] abbreviates: pre-emergence, 480 h, Rate 250 g/ha, pre-emergence, visual assessment 20 DAA, 100%=total damage, 0%=no damage, read-out: Pre-emergence herbicidal activity (percentage phytotoxicity) ALOMY PRE.
[24] abbreviates: post-emergence, 360 h, Rate 250 g/ha, post-emergence, visual assessment 15 DAA, 100%=total damage, 0%=no damage, read-out: Post-emergence herbicidal activity (percentage phytotoxicity) LOLPE POST.
[25] abbreviates: pre-emergence, 480 h, Rate 250 g/ha, pre-emergence, visual assessment 20 DAA, 100%=total damage, 0%=no damage, read-out: Pre-emergence herbicidal activity (percentage phytotoxicity) LOLPE PRE.
[26] abbreviates: pre-emergence, 480 h, Rate 250 g/ha, pre-emergence, assessed visually 20 DAA, 100%=total damage, 0%=no damage, read-out: Pre-emergence herbicidal activity (percentage phytotoxicity) ALOMY PRE.

On to `Cc1cc(-c2cnc(Cl)cn2)cc(C)c1C1C(=O)CC(CC(=O)NCc2cccc(C(F)(F)F)c2)C1=O` (stereo not drawn) [Compound A133], for which the pest or weed control at 250 g/ha with Avena fatua (AVEFA) (setting [3]) amounted to 100%; in the assay on Avena fatua (AVEFA) (setting [4]), 90%; in assay [1] (setting [5]) it was 100%; in assay [1] (setting [6]), 90%; in assay [2] (setting [7]) it was 90%; in the assay on Lolium perenne (LOLPE) (setting [8]), 80%. In addition, the pest or weed control at 250 g/ha with Lolium perenne (LOLPE) (setting [9]) was 80%. Besides, the “Pre-emergence herbicidal activity (percentage phytotoxicity) ALOMY PRE” value in assay [2] (Rate 250 g/ha, pre-emergence, assessed visually 20 DAA, 100%=total damage, 0%=no damage) came to 30%.
Turning to `CC#Cc1cc(C)c(C2C(=O)CC(CC(=O)NCc3ccc(C#N)cc3)C2=O)c(C)c1` (stereo not drawn) [Compound B186], the pest or weed control at 250 g/ha in the assay with Avena fatua (AVEFA) (setting [10]) amounted to 90%; in the assay on Avena fatua (AVEFA) (setting [11]) it was 100%; in assay [1] (setting [12]), 100%; in assay [1] (setting [13]) it was 100%; in assay [2] (setting [14]) it was 90%; in assay [2] (setting [15]), 90%. Further, the pest or weed control at 250 g/ha in the assay on Lolium perenne (LOLPE) (setting [16]) and with Lolium perenne (LOLPE) (setting [17]) was 90% throughout.
`Cc1cc(-c2ccc(Cl)cn2)cc(C)c1C1C(=O)CC(CC(=O)N(C)C(C)C)C1=O` (stereo not drawn) [Compound B371]: the pest or weed control at 250 g/ha worked out at 100% with Avena fatua (AVEFA) (setting [18]); 90% in the assay on Avena fatua (AVEFA) (setting [19]); 100% in assay [1] (setting [20]); 100% in assay [1] (setting [21]); 100% in assay [2] (setting [22]); 90% in assay [2] (setting [23]). In addition, the pest or weed control at 250 g/ha with Lolium perenne (LOLPE) (setting [24]) and with Lolium perenne (LOLPE) (setting [25]) was 100% throughout.
Consider `Cc1cc(-c2ccc(F)cn2)cc(C)c1C1C(=O)CC(CC(=O)NC(C)C)C1=O` (stereo not drawn) [Compound B385], for which the pest or weed control at 250 g/ha (in the assay with Avena fatua (AVEFA) (setting [18]); in the assay on Avena fatua (AVEFA) (setting [19]); in assay [1] (setting [20]); in assay [1] (setting [21]); in assay [2] (setting [22]); in assay [2] (setting [23])) was 100% each time. Also, the pest or weed control at 250 g/ha in the assay with Lolium perenne (LOLPE) (setting [24]) and in the assay on Lolium perenne (LOLPE) (setting [25]) was 100% in each case.
Turning to `CC#Cc1cc(C)c(C2C(=O)CC(CC(=O)NCC(C)(C)C)C2=O)c(CC)c1` (stereo not drawn) [Compound A53], the pest or weed control at 250 g/ha was determined as 90% in the assay on Avena fatua (AVEFA) (setting [3]); 80% in the assay with Avena fatua (AVEFA) (setting [4]); 100% in assay [1] (setting [5]); 100% in assay [1] (setting [6]); 100% in assay [2] (setting [7]); 90% in assay [2] (setting [26]). In addition, the pest or weed control at 250 g/ha in the assay on Lolium perenne (LOLPE) (setting [8]) and with Lolium perenne (LOLPE) (setting [9]) was 90% throughout.
On to `Cc1cc(-c2ncc(Cl)cc2F)cc(C)c1C1C(=O)CC(CC(=O)NCc2ncccc2Cl)C1=O` (stereo not drawn) [Compound A114], for which the pest or weed control at 250 g/ha in the assay on Avena fatua (AVEFA) (setting [3]) is 100%; with Avena fatua (AVEFA) (setting [4]), 90%; in assay [1] (setting [5]) it was 100%; in assay [1] (setting [6]) it was 100%; in assay [2] (setting [7]), 100%; in assay [2] (setting [26]), 90%. The pest or weed control at 250 g/ha with Lolium perenne (LOLPE) (setting [8]) was 100%; in the assay on Lolium perenne (LOLPE) (setting [9]), 90%.
As to `Cc1cc(-n2cc(Cl)cn2)cc(C)c1C1C(=O)CC(CC(=O)NCc2cccc(F)c2)C1=O` (stereo not drawn) [Compound B223], the pest or weed control at 250 g/ha with Avena fatua (AVEFA) (setting [10]) is 100%; with Avena fatua (AVEFA) (setting [11]), 70%; in assay [1] (setting [12]), 100%; in assay [1] (setting [13]) it was 90%; in assay [2] (setting [14]), 90%; in assay [2] (setting [15]), 90%. For the same molecule, the pest or weed control at 250 g/ha in the assay on Lolium perenne (LOLPE) (setting [16]) and in the assay with Lolium perenne (LOLPE) (setting [17]) was 80% in each case.
Take `Cc1cc(-c2ncc(Cl)cc2F)cc(C)c1C1C(=O)CC(CC(=O)NCc2cccc(F)c2)C1=O` (stereo not drawn) [Compound B129]: the pest or weed control at 250 g/ha in the assay on Avena fatua (AVEFA) (post-emergence, 360 h, 250 g/ha, post-emergence, 15 DAA, visual assessment (100%=total damage, 0%=no damage), read-out: Post-emergence herbicidal activity (percentage phytotoxicity) AVEFA POST) is 100%; with Avena fatua (AVEFA) (pre-emergence, 480 h, 250 g/ha, pre-emergence, 20 DAA, visual assessment (100%=total damage, 0%=no damage), read-out: Pre-emergence herbicidal activity (percentage phytotoxicity) AVEFA PRE), 50%; in assay [1] (post-emergence, 360 h, 250 g/ha, post-emergence, 15 DAA, visual assessment (100%=total damage, 0%=no damage), read-out: Post-emergence herbicidal activity (percentage phytotoxicity) ECHCG POST), 100%; in assay [1] (pre-emergence, 480 h, 250 g/ha, pre-emergence, 20 DAA, visual assessment (100%=total damage, 0%=no damage), read-out: Pre-emergence herbicidal activity (percentage phytotoxicity) ECHCG PRE), 70%; in assay [2] (post-emergence, 360 h, 250 g/ha, post-emergence, 15 DAA, visual assessment (100%=total damage, 0%=no damage), read-out: Post-emergence herbicidal activity (percentage phytotoxicity) ALOMY POST), 100%; in assay [2] (pre-emergence, 480 h, 250 g/ha, pre-emergence, 20 DAA, visual assessment (100%=total damage, 0%=no damage), read-out: Pre-emergence herbicidal activity (percentage phytotoxicity) ALOMY PRE), 90%. The pest or weed control at 250 g/ha in the assay with Lolium perenne (LOLPE) (post-emergence, 360 h, 250 g/ha, post-emergence, 15 DAA, visual assessment (100%=total damage, 0%=no damage), read-out: Post-emergence herbicidal activity (percentage phytotoxicity) LOLPE POST) was 100%; with Lolium perenne (LOLPE) (pre-emergence, 480 h, 250 g/ha, pre-emergence, 20 DAA, visual assessment (100%=total damage, 0%=no damage), read-out: Pre-emergence herbicidal activity (percentage phytotoxicity) LOLPE PRE) it was 90%.
In the case of `Cc1cc(-c2ncc(F)cn2)cc(C)c1C1C(=O)CC(CC(=O)NCc2cccs2)C1=O` (stereo not drawn) [Compound A141], the pest or weed control at 250 g/ha with Avena fatua (AVEFA) (setting [3]) came to 100%; with Avena fatua (AVEFA) (setting [4]) it was 90%; in assay [1] (setting [5]), 100%; in assay [1] (setting [6]) it was 100%; in assay [2] (setting [7]) it was 90%; in assay [2] (setting [26]) it was 90%. The pest or weed control at 250 g/ha with Lolium perenne (LOLPE) (setting [8]) came to 90%; in the assay on Lolium perenne (LOLPE) (setting [9]) it was 100%.
